Data on one compound can be found in patent US11576903B2, “Amorphous kinase inhibitor formulations and methods of use thereof” (Deciphera Pharmaceuticals, LLC, priority 2019, dated 2023).

Data set [1] can be described thus: Pharmacokinetic study after oral administration to rats. As to conditions: rat, in vivo, 10 mg/kg (Compound 1 basis), oral suspension. As to the method:
Studies comparing the pharmacokinetics of crystalline Compound 1 and solid dispersion of amorphous Compound 1 (25%) as prepared in Example 1 were conducted in rats. The dose in both studies were 10 mg/kg (Compound 1 basis). Rats were administered Crystalline Compound 1 as an oral suspension in a vehicle of 20% Captisol/0.4% HPMC at pH 2. Rats were administered amorphous Compound 1 as an oral suspension using in a 0.5% Methocel vehicle.

Data set [2] can be described thus: Kinetic aqueous solubility at select pH. It counts as physicochemical. As to conditions: aqueous medium, kinetic from dmso stock, 25° C. The method, then: Solubility of a solid dispersion of amorphous Compound 1 (25%)/HPMCAS-HG as prepared in Example 1, at select pH values was evaluated.

Converted amounts (≈) assume the structure as drawn.

Broadly, the AUC(0-inf) is the area under the concentration-time curve extrapolated to infinity. A lower AUC(0-inf) goes with low exposure. For orientation: AUC(0-t) means the area under the concentration-time curve up to a stated or last time point. Higher therefore signals high exposure. As usually defined, the Cmax is the highest concentration seen after dosing. For orientation: Tmax means the time from dosing to the highest level. The half-life is the time needed for the level to fall by half in the phase considered. Low readings indicate rapid decline, high ones slow decline. By kinetic solubility is commonly meant solubility judged after dilution from a stock solution rather than from solid. Regarding `CCn1c(=O)c(-c2cc(NC(=O)Nc3ccccc3)c(F)cc2Br)cc2cnc(NC)cc21` [Crystalline Compound 1], in data set [1], the AUC(0-inf) was 131 ng·h/mL, the AUC(0-t) came out at 111 ng·h/mL, the Cmax came to 20.2 ng/mL and the Tmax is 1.67 h. This compound showed a half-life in data set [1] of 526 min. For the same compound, in data set [2] (aqueous buffer, pH 6.5, aqueous), the kinetic solubility amounted to 1 µg/mL (≈ 1.96 µM). In data set [2] (simulated gastric fluid, pH 2, aqueous), the solubility (kinetic) is 6 µg/mL (≈ 11.8 µM).
